Laboratory results from US12123010B2, “Plants having increased tolerance to herbicides” (BASF SE, priority 2017, dated 2024).
pIC50: −log10 of the molar value. Where “and” joins values, the source holds several entries; their conditions need not be identical. Equal values may be shown once.

Legend:
[1] = tested on: Variant PPO Enzyme F420M (Amaranthus PPO2); assay: biochemical; assay type: biochemical; details: variant F420M vs wild type
[2] = target: Wild Type PPO Enzyme (Amaranthus PPO2, SEQ ID NO: 1) (Amaranthus tuberculatus, UniProt Q0NZW9); assay: PPO enzyme assay (recombinant), wild type; assay type: biochemical
Wild Type PPO Enzyme (Amaranthus PPO2, SEQ ID NO: 1), sequence (Q0NZW9 1-534): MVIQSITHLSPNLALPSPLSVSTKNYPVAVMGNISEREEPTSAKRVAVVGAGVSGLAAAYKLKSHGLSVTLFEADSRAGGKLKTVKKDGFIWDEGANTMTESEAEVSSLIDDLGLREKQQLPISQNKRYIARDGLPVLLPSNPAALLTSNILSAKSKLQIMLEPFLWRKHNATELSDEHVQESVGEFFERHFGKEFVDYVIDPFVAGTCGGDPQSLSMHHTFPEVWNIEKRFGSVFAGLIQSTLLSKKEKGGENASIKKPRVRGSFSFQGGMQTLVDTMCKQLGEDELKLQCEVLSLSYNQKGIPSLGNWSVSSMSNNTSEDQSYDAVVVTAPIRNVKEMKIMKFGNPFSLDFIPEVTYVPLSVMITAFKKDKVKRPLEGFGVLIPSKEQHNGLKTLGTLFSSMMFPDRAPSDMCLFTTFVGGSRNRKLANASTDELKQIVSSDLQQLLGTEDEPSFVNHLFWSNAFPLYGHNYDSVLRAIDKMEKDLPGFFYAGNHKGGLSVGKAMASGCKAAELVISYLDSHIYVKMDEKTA

[3] = tested on: Transgenic T2 Arabidopsis plants harboring PPO inhibitor tolerance trait; assay: Lab based germination assay in 48-well plates (Table i); assay type: in vivo, Arabidopsis thaliana; details: construct AMATU_PPO2_TP_hemG (Escherichia coli); in comparison to wild type plants
[4] = tested on: Variant PPO Enzyme R128A, F420V (Amaranthus PPO2); assay: biochemical; assay type: biochemical; details: variant R128A, F420V vs wild type
[5] = tested on: Variant PPO Enzyme R128A, F420M (Amaranthus PPO2); assay type: biochemical; details: variant R128A, F420M vs wild type
[6] = tested on: Transgenic T2 Arabidopsis plants and ARBTH WT MC24 non-transgenic; assay: Greenhouse post spray test, injury 14 DAT (Tables ii, iii); assay type: in vivo, Arabidopsis thaliana; details: for pest or weed control at 50 g/ha / pest or weed control at 100 g/ha / pest or weed control at 200 g/ha / pest or weed control at 1 g/ha / pest or weed control at 5 g/ha / pest or weed control at 10 g/ha / pest or weed control at 30 g/ha / pest or weed control at 80 g/ha: Arabidopsis thaliana, 336 h;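 for all read-outs here: value is percent injury to the sprayed plants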
[7] = tested on: Transgenic T2 or T3 Soybean plants harbouring PPO inhibitor tolerance trait; assay: Soybean Trial, post spray, injury score 14 DAT; assay type: in vivo
Protocol: Soybean cv Jake is transformed as previously described by Siminszky et al., Phytochem Rev. 5:445-458 (2006). After regeneration, transformants are transplanted to soil in small pots, placed in growth chambers (16 hr day/8 hr night; 25° C. day/23° C. night; 65% relative humidity; 130-150 microE m-2 s-1) and subsequently tested for the presence of the T-DNA via Taqman analysis. After a few weeks, healthy, transgenic positive, single copy events are transplanted to larger pots and allowed to grow in the growth chamber. An optimal shoot for cutting is about 3-4 inches tall, with at least two nodes present. Each cutting is taken from the original transformant (mother plant) and dipped into rooting hormone powder (indole-3-butyric acid, IBA). The cutting is then placed in oasis wedges inside a bio-dome. The mother plant is taken to maturity in the greenhouse and harvested for seed. Wild type cuttings are also taken simultaneously to serve as negative controls. The cuttings are kept in the bio-dome for 5-7 days and then transplanted to 3 inch pots and then acclimated in the growth chamber for two more days. Subsequently, the cuttings are transferred to the greenhouse, acclimated for approximately 4 days prior to spray. T0 or 2-week old T1 plants are sprayed with a treatment of the uracilpyridines as disclosed SUPRA and photosynthesis inhibitor diuron as negative control. Herbicide injury evaluations are taken at 2, 7, 14 and 21 days after treatment.
Transgenic T2 or T3 Soybean plants harbouring PPO inhibitor tolerance trait, were sprayed post with the indicated amount of uracilpyridine+1% (v/v) MSO. Evaluation performed 14 Days After Treatment (DAT) and shown as injury (0-9) relative to non-transgenic treated plants. Injury Scale: 0-9, 0=no imjury, 9=maximum injury. Note: segregating lines.

[8] = Table iii, ALOMY_PPO2_R137L_F438M (unnamed lines), 50 g ai/ha
[9] = Table iii, ALOMY_PPO2_R137L_F438M (unnamed lines), 100 g ai/ha

With CCOC(=O)COc1ccccc1Oc1nc(-n2c(=O)cc(C(F)(F)F)n(C)c2=O)c(F)cc1Cl [Uracilpyridine 4, ethyl 2-[2-[[3-chloro-5-fluoro-6-[3-methyl-2,6-dioxo-4-(trifluoromethyl)pyrimidin-1-yl]-2-pyridyl]oxy]phenoxy]acetate] the “Tolerance Factor (R/S)” value [1] was 55, the pIC50 [2] was 9.76 and the “Tolerance Factor” value [3] was 810000. For the same molecule, the “Tolerance Factor (R/S)” value [4] was 1718, the “Tolerance Factor (R/S)” value [5] was 401 and the pest or weed control at 50 g/ha ([6]; Table ii, ALOMY_PPO2_R137L_F438V event F, 50 g ai/ha) was 8%. The pest or weed control at 100 g/ha ([6]; Table ii, ALOMY_PPO2_R137L_F438V event F, 100 g ai/ha) was 20%, the pest or weed control at 200 g/ha ([6]; Table ii, ALOMY_PPO2_R137L_F438V event F, 200 g ai/ha) was 20% and the pest or weed control at 50 g/ha ([6]; Table ii, ALOMY_PPO2_R137L_F438V event G, 50 g ai/ha) was 8%. The pest or weed control at 100 g/ha ([6]; Table ii, ALOMY_PPO2_R137L_F438V event G, 100 g ai/ha) was 15%, the pest or weed control at 200 g/ha ([6]; Table ii, ALOMY_PPO2_R137L_F438V event G, 200 g ai/ha) was 8% and the pest or weed control at 50 g/ha ([6]; Table ii, ALOMY_PPO2_TP_AMATU_PPO2_R128M_F420I event R, 50 g ai/ha) was 40%. For the same molecule, the pest or weed control at 100 g/ha ([6]; Table ii, ALOMY_PPO2_TP_AMATU_PPO2_R128M_F420I event R, 100 g ai/ha) was 60%, the pest or weed control at 200 g/ha ([6]; Table ii, ALOMY_PPO2_TP_AMATU_PPO2_R128M_F420I event R, 200 g ai/ha) was 80% and the pest or weed control at 50 g/ha ([6]; Table ii, AMATU_PPO2_R128A_F420M event Q, 50 g ai/ha) was 55%. The pest or weed control at 100 g/ha ([6]; Table ii, AMATU_PPO2_R128A_F420M event Q, 100 g ai/ha) was 60%, the pest or weed control at 200 g/ha ([6]; Table ii, AMATU_PPO2_R128A_F420M event Q, 200 g ai/ha) was 60% and the pest or weed control at 50 g/ha ([6]; Table ii, AMATU_PPO2_R128M_F420I event K, 50 g ai/ha) was 30%. It also gave a pest or weed control at 100 g/ha ([6]; Table ii, AMATU_PPO2_R128M_F420I event K, 100 g ai/ha) of 58%, a pest or weed control at 200 g/ha ([6]; Table ii, AMATU_PPO2_R128M_F420I event K, 200 g ai/ha) of 73% and a pest or weed control at 50 g/ha ([6]; Table ii, AMATU_PPO2_TP_hemG event R, 50 g ai/ha) of 30%. It also gave a pest or weed control at 100 g/ha ([6]; Table ii, AMATU_PPO2_TP_hemG event R, 100 g ai/ha) of 38%, a pest or weed control at 200 g/ha ([6]; Table ii, AMATU_PPO2_TP_hemG event R, 200 g ai/ha) of 65% and a pest or weed control at 1 g/ha ([6]; Table ii, AMATU_PPO2_WT event Q, 1 g ai/ha) of 25%. For the same molecule, the pest or weed control at 5 g/ha ([6]; Table ii, AMATU_PPO2_WT event Q, 5 g ai/ha) was 88%, the pest or weed control at 10 g/ha ([6]; Table ii, AMATU_PPO2_WT event Q, 10 g ai/ha) was 100% and the pest or weed control at 30 g/ha ([6]; Table ii, AMATU_PPO2_WT event Q, 30 g ai/ha) was 100%. It also gave a pest or weed control at 1 g/ha ([6]; Table ii, ARBTH WT MC24 non-transgenic, 1 g ai/ha + 1% MSO) of 100%, a pest or weed control at 5 g/ha ([6]; Table ii, ARBTH WT MC24 non-transgenic, 5 g ai/ha + 1% MSO) of 100% and a pest or weed control at 10 g/ha ([6]; Table ii, ARBTH WT MC24 non-transgenic, 10 g ai/ha + 1% MSO) of 100%. For the same molecule, the pest or weed control at 30 g/ha ([6]; Table ii, ARBTH WT MC24 non-transgenic, 30 g ai/ha + 1% MSO) was 100%, the pest or weed control at 50 g/ha ([6]; Table ii, ARBTH WT MC24 non-transgenic, 50 g ai/ha + 1% MSO) was 100% and the pest or weed control at 80 g/ha ([6]; Table ii, ARBTH WT MC24 non-transgenic, 80 g ai/ha + 1% MSO) was 100%. The pest or weed control at 100 g/ha ([6]; Table ii, ARBTH WT MC24 non-transgenic, 100 g ai/ha + 1% MSO) was 100%, the pest or weed control at 200 g/ha ([6]; Table ii, ARBTH WT MC24 non-transgenic, 200 g ai/ha + 1% MSO) was 100% and the pest or weed control at 5 g/ha ([6]; Table ii, ARBTH_PPO1_S305L_Y426M event O, 5 g ai/ha) was 0%. It also gave a pest or weed control at 10 g/ha ([6]; Table ii, ARBTH_PPO1_S305L_Y426M event O, 10 g ai/ha) of 0%, a pest or weed control at 30 g/ha ([6]; Table ii, ARBTH_PPO1_S305L_Y426M event O, 30 g ai/ha) of 0% and a pest or weed control at 80 g/ha ([6]; Table ii, ARBTH_PPO1_S305L_Y426M event O, 80 g ai/ha) of 95%. It also gave a pest or weed control at 1 g/ha ([6]; Table ii, ARBTH_PPO1_WT event Q, 1 g ai/ha) of 33%, a pest or weed control at 5 g/ha ([6]; Table ii, ARBTH_PPO1_WT event Q, 5 g ai/ha) of 99% and a pest or weed control at 10 g/ha ([6]; Table ii, ARBTH_PPO1_WT event Q, 10 g ai/ha) of 100%. The pest or weed control at 30 g/ha ([6]; Table ii, ARBTH_PPO1_WT event Q, 30 g ai/ha) was 100%, the pest or weed control at 50 g/ha [6, 8] was 0% and the pest or weed control at 100 g/ha [6, 9] was 0%. The pest or weed control at 50 g/ha ([6]; Table iii, AMATU_PPO2_L397Q_F420V (unnamed lines), 50 g ai/ha) was 60%, the pest or weed control at 100 g/ha ([6]; Table iii, AMATU_PPO2_L397Q_F420V (unnamed lines), 100 g ai/ha) was 80% and the pest or weed control at 100 g/ha ([6]; Table iii, AMATU_PPO2_R128A_F420I (unnamed lines), 100 g ai/ha) was 55%. The pest or weed control at 50 g/ha ([6]; Table iii, AMATU_PPO2_R128A_F420V (unnamed lines), 50 g ai/ha) was 75%, the pest or weed control at 50 g/ha ([6]; Table iii, ARBTH WT MC 24 (non-transgenic), 50 g ai/ha + 1% MSO) was 100% and the pest or weed control at 100 g/ha ([6]; Table iii, ARBTH WT MC 24 (non-transgenic), 100 g ai/ha + 1% MSO) was 100%. For the same molecule, the “injury (%)” value [6, 8] was 0%, the “injury (%)” value [6, 9] was 0% and the “injury (0-9)” value ([7]; L397E, F420M Event 2, 25 g/ha + 1% (v/v) MSO) was 0 (No Injury). The “injury (0-9)” value ([7]; L397E, F420M Event 2, 50 g/ha + 1% (v/v) MSO) was 0 (No Injury), the “injury (0-9)” value ([7]; L397E, F420M Event 2, 100 g/ha + 1% (v/v) MSO) was 0 (No Injury) and the “injury (0-9)” value ([7]; L397E, F420V Event 1, 25 g/ha + 1% (v/v) MSO) was 0 (No Injury). The “injury (0-9)” value ([7]; L397E, F420V Event 1, 50 g/ha + 1% (v/v) MSO) was 0 (No Injury), the “injury (0-9)” value ([7]; L397E, F420V Event 1, 100 g/ha + 1% (v/v) MSO) was 0 (No Injury) and the “injury (0-9)” value ([7]; L397Q, F420M Event 3, 25 g/ha + 1% (v/v) MSO) was 0 (No Injury). For the same molecule, the “injury (0-9)” value ([7]; L397Q, F420M Event 3, 50 g/ha + 1% (v/v) MSO) was 3 and the “injury (0-9)” value ([7]; L397Q, F420M Event 3, 100 g/ha + 1% (v/v) MSO) was 3 and 4.
